Results: PubChem BioAssay (NCI)
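Grown in 96-well plates, cells were treated for 48 hours with each compound at five concentrations. Insufficient inhibition: endpoint recorded as highest concentration tested. The concentration for 50% growth inhibition is given as GI50. TGI denotes the concentration required for complete inhibition of growth.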

How the values were obtained:
Assay in all cases: NCI-60 cell line screen, 48 h
786-0 renal = tested on: 786-0 renal
A498 renal = tested on: A498 renal
A549 NSCLC = tested on: A549 NSCLC
ACHN renal = tested on: ACHN renal
BT-549 breast = tested on: BT-549 breast
CAKI-1 renal = tested on: CAKI-1 renal
CCRF-CEM leukemia = tested on: CCRF-CEM leukemia
COLO 205 colon = tested on: COLO 205 colon
DU-145 prostate = tested on: DU-145 prostate
HCC-2998 colon = tested on: HCC-2998 colon
HCT-116 colon = tested on: HCT-116 colon
HCT-15 colon = tested on: HCT-15 colon
HL-60(TB) leukemia = tested on: HL-60(TB) leukemia
HOP-62 NSCLC = tested on: HOP-62 NSCLC
HOP-92 NSCLC = tested on: HOP-92 NSCLC
HS 578T breast = tested on: HS 578T breast
HT29 colon = tested on: HT29 colon
IGROV1 ovarian = tested on: IGROV1 ovarian
K-562 leukemia = tested on: K-562 leukemia
KM12 colon = tested on: KM12 colon
LOX IMVI melanoma = tested on: LOX IMVI melanoma
M14 melanoma = tested on: M14 melanoma
MALME-3M melanoma = tested on: MALME-3M melanoma
MCF7 breast = tested on: MCF7 breast
MDA-MB-231 breast = tested on: MDA-MB-231 breast
MDA-MB-435 = tested on: MDA-MB-435
MOLT-4 leukemia = tested on: MOLT-4 leukemia
NCI-H226 lung = tested on: NCI-H226 lung
NCI-H23 lung = tested on: NCI-H23 lung
NCI-H460 lung = tested on: NCI-H460 lung
NCI-H522 lung = tested on: NCI-H522 lung
NCI/ADR-RES ovarian = tested on: NCI/ADR-RES ovarian
OVCAR-3 ovarian = tested on: OVCAR-3 ovarian
OVCAR-4 ovarian = tested on: OVCAR-4 ovarian
OVCAR-5 ovarian = tested on: OVCAR-5 ovarian
OVCAR-8 ovarian = tested on: OVCAR-8 ovarian
PC-3 prostate = tested on: PC-3 prostate
RPMI-8226 leukemia = tested on: RPMI-8226 leukemia
RXF 393 renal = tested on: RXF 393 renal
SF-268 CNS = tested on: SF-268 CNS
SF-295 CNS = tested on: SF-295 CNS
SF-539 CNS = tested on: SF-539 CNS
SK-MEL-2 melanoma = tested on: SK-MEL-2 melanoma
SK-MEL-28 melanoma = tested on: SK-MEL-28 melanoma
SK-MEL-5 melanoma = tested on: SK-MEL-5 melanoma
SK-OV-3 ovarian = tested on: SK-OV-3 ovarian
SN12C renal = tested on: SN12C renal
SNB-19 CNS = tested on: SNB-19 CNS
SNB-75 CNS = tested on: SNB-75 CNS
SR leukemia = tested on: SR leukemia
SW-620 colon = tested on: SW-620 colon
T-47D breast = tested on: T-47D breast
TK-10 renal = tested on: TK-10 renal
U251 CNS = tested on: U251 CNS
UACC-257 melanoma = tested on: UACC-257 melanoma
UACC-62 melanoma = tested on: UACC-62 melanoma
UO-31 renal = tested on: UO-31 renal

What does the source list for `C[CH2][Pb]([CH2]C)([CH2]C)[O]C(=O)COC`?
GI50 (786-0 renal): 1220 nM; TGI (786-0 renal): 3110 nM; GI50 (A498 renal): 277 nM; TGI (A498 renal): 2290 nM; GI50 (A549 NSCLC): 1360 nM; TGI (A549 NSCLC): 6820 nM; GI50 (ACHN renal): 836 nM; TGI (ACHN renal): 10200 nM; GI50 (BT-549 breast): 837 nM; TGI (BT-549 breast): 3610 nM; GI50 (CAKI-1 renal): 1060 nM; TGI (CAKI-1 renal): 8040 nM; GI50 (CCRF-CEM leukemia): 534 nM; TGI (CCRF-CEM leukemia): 6840 nM; GI50 (COLO 205 colon): 1350 nM; TGI (COLO 205 colon): 2960 nM; GI50 (DU-145 prostate): 1490 nM; TGI (DU-145 prostate): 5680 nM; GI50 (HCC-2998 colon): 907 nM; TGI (HCC-2998 colon): 2390 nM; GI50 (HCT-116 colon): 578 nM; TGI (HCT-116 colon): 1970 nM; GI50 (HCT-15 colon): 737 nM; TGI (HCT-15 colon): 4330 nM; GI50 (HL-60(TB) leukemia): 634 nM; TGI (HL-60(TB) leukemia): 2450 nM; GI50 (HOP-62 NSCLC): 1670 nM; TGI (HOP-62 NSCLC): 4060 nM; GI50 (HOP-92 NSCLC): 292 nM; TGI (HOP-92 NSCLC): 3280 nM; GI50 (HS 578T breast): 517 nM; TGI (HS 578T breast): 4570 nM; GI50 (HT29 colon): 1430 nM; TGI (HT29 colon): 3380 nM; GI50 (IGROV1 ovarian): 1150 nM; TGI (IGROV1 ovarian): 6330 nM; GI50 (K-562 leukemia): 499 nM; TGI (K-562 leukemia): 5770 nM; GI50 (KM12 colon): 817 nM; TGI (KM12 colon): 6100 nM; GI50 (LOX IMVI melanoma): 815 nM; TGI (LOX IMVI melanoma): 2280 nM; GI50 (M14 melanoma): 400 nM; TGI (M14 melanoma): 1900 nM; GI50 (MALME-3M melanoma): 337 nM; TGI (MALME-3M melanoma): 3760 nM; GI50 (MCF7 breast): 469 nM; TGI (MCF7 breast): 7530 nM; GI50 (MDA-MB-231 breast): 1130 nM; TGI (MDA-MB-231 breast): 3370 nM; GI50 (MDA-MB-435): 182 nM; TGI (MDA-MB-435): 409 nM; GI50 (MOLT-4 leukemia): 1750 nM; TGI (MOLT-4 leukemia): 5970 nM; GI50 (NCI-H226 lung): 1620 nM; TGI (NCI-H226 lung): 6170 nM; GI50 (NCI-H23 lung): 1010 nM; TGI (NCI-H23 lung): 5070 nM; GI50 (NCI-H460 lung): 951 nM; TGI (NCI-H460 lung): 10400 nM; GI50 (NCI-H522 lung): 892 nM; TGI (NCI-H522 lung): 2480 nM; GI50 (NCI/ADR-RES ovarian): 785 nM; TGI (NCI/ADR-RES ovarian): 12000 nM; GI50 (OVCAR-3 ovarian): 441 nM; TGI (OVCAR-3 ovarian): 1860 nM; GI50 (OVCAR-4 ovarian): 541 nM; TGI (OVCAR-4 ovarian): 2910 nM; GI50 (OVCAR-5 ovarian): 1460 nM; TGI (OVCAR-5 ovarian): 3770 nM; GI50 (OVCAR-8 ovarian): 1910 nM; TGI (OVCAR-8 ovarian): 9030 nM; GI50 (PC-3 prostate): 795 nM; TGI (PC-3 prostate): 2510 nM; GI50 (RPMI-8226 leukemia): 421 nM; TGI (RPMI-8226 leukemia): 3000 nM; GI50 (RXF 393 renal): 232 nM; TGI (RXF 393 renal): 783 nM; GI50 (SF-268 CNS): 1750 nM; TGI (SF-268 CNS): 7020 nM; GI50 (SF-295 CNS): 1330 nM; TGI (SF-295 CNS): 3060 nM; GI50 (SF-539 CNS): 1230 nM; TGI (SF-539 CNS): 3280 nM; GI50 (SK-MEL-2 melanoma): 332 nM; TGI (SK-MEL-2 melanoma): 879 nM; GI50 (SK-MEL-28 melanoma): 552 nM; TGI (SK-MEL-28 melanoma): 2900 nM; GI50 (SK-MEL-5 melanoma): 427 nM; TGI (SK-MEL-5 melanoma): 1620 nM; GI50 (SK-OV-3 ovarian): 1550 nM; TGI (SK-OV-3 ovarian): 4930 nM; GI50 (SN12C renal): 2050 nM; TGI (SN12C renal): 9190 nM; GI50 (SNB-19 CNS): 1970 nM; TGI (SNB-19 CNS): 9060 nM; GI50 (SNB-75 CNS): 304 nM; TGI (SNB-75 CNS): 2850 nM; GI50 (SR leukemia): 328 nM; TGI (SR leukemia): 5070 nM; GI50 (SW-620 colon): 333 nM; TGI (SW-620 colon): 1330 nM; GI50 (T-47D breast): 317 nM; TGI (T-47D breast): 2530 nM; GI50 (TK-10 renal): 832 nM; TGI (TK-10 renal): 3770 nM; GI50 (U251 CNS): 1290 nM; TGI (U251 CNS): 2940 nM; GI50 (UACC-257 melanoma): 571 nM; TGI (UACC-257 melanoma): 3260 nM; GI50 (UACC-62 melanoma): 407 nM; TGI (UACC-62 melanoma): 3470 nM; GI50 (UO-31 renal): 567 nM; TGI (UO-31 renal): 2950 nM
